# In patent US8280710B2, “Method for determining thermal stability of collagen or collagen-like peptide” (University of Medicine and Dentistry of New Jersey, priority 2005, dated 2012):
# Non-standard residues stand in square brackets, D forms with d. Residues, ends and D or L forms follow the SMILES beside them. Hyp = O=C(O)[C@@H]1C[C@@H](O)CN1
# Legend:
# [1] = peptide of Table 3, defined standard conditions
# Procedure: The propensity measurements for all 20 amino acid residues in the Xaa1 position in a Gly-Xaa1-Hyp context and all 20 amino acid residues in the Xaa2 position in a Gly-Pro-Xaa2 context were determined by measuring thermal stability of host-guest peptides (Persikov, et al. (2000) supra).
# The Tm values of all host-guest peptides were measured under a set of standard conditions, with c=1 mg/ml in phosphate-buffered saline, pH 7.0, and with a heating rate average of 0.1° C./minute (Persikov, et al. (2004) supra).
# [2] = Method for predicting global Tm of collagen peptides from amino acid sequence; conditions: observed minus predicted, peptides of Table 3
# Procedure: The global thermal stability of homotrimeric triple helical peptides with length of at least 6 tripeptide units and, in most cases, containing 10 tripeptide units was determined as follows.
# For the total number of triplets n in a given peptide, the base Tm^0(n) for (Pro-Hyp-Gly) or (Pro-Pro-Gly)n was calculated from the length dependence (Equation 1), including any effect of blocking groups;
# The melting temperature value was decreased for every triplet in the sequence that was not Gly-Pro-Hyp, subtracting a value of ΔTm^GXY (Table 1). The N-terminal and C-terminal tripeptide units were excluded from the calculation due to the staggering of the chains and the disorder for the peptide ends (Bella et al. (1994) supra; Li, et al. (1993) Biochemistry 32:7377-7387; Kramer, et al. (2001) J. Mol. Biol. 301:1191-1205).
# The resulting value for the peptide melting temperature was adjusted using the ΔTm^int values for interactions between neighboring tripeptides (Table 2).
# The method was formulated as follows.
# To extrapolate the dependence of the Tm of the host peptides on peptide length, the experimental values for (Pro-Hyp-Gly)n and (Pro-Pro-Gly)n versus n, where n is the number of tripeptide units, were fit to the exponential decay function
# [formula] where Tm^0(n) is defined as the base thermal stability of the repeating polytripeptide standard, Tm^max is the maximum melting temperature, and the constant n0 represents the length of the repeating peptide with Tm=0.
Compound,Tm^obs [1] [°C],ΔTm [2] [°C]
"CC(=O)NCC(=O)N1CCC[C@H]1C(=O)N1C[C@H](O)C[C@H]1C(=O)NCC(=O)N1CCC[C@H]1C(=O)N1C[C@H](O)C[C@H]1C(=O)NCC(=O)N[C@@H](CCCNC(=N)N)C(=O)N1C[C@H](O)C[C@H]1C(=O)NCC(=O)N[C@@H](CCCNC(=N)N)C(=O)N[C@@H](CCCCN)C(=O)NCC(=O)N[C@@H](CCCNC(=N)N)C(=O)N1C[C@H](O)C[C@H]1C(=O)NCC(=O)N1CCC[C@H]1C(=O)N1C[C@H](O)C[C@H]1C(=O)NCC(=O)N1CCC[C@H]1C(=O)N1C[C@H](O)C[C@H]1C(=O)NCC(=O)N1CCC[C@H]1C(=O)N1C[C@H](O)C[C@H]1C(=O)NCC(=O)N1CCC[C@H]1C(=O)N1C[C@H](O)C[C@H]1C(=O)NCC(=O)N1CCC[C@H]1C(=O)N1C[C@H](O)C[C@H]1C(=O)NCC(N)=O [AchE-P126 (r), Ac-GPO-GPO-GRO-GRK-GRO-(GPO)5-G-NH2] (Ac-GP[Hyp]GP[Hyp]GR[Hyp]GRKGR[Hyp]GP[Hyp]GP[Hyp]GP[Hyp]GP[Hyp]GP[Hyp]G-NH2)",30.0,−2.6
"CC(=O)NCC(=O)N1CCC[C@H]1C(=O)N1C[C@H](O)C[C@H]1C(=O)NCC(=O)N1CCC[C@H]1C(=O)N1C[C@H](O)C[C@H]1C(=O)NCC(=O)N[C@@H](CCCNC(=N)N)C(=O)N1C[C@H](O)C[C@H]1C(=O)NCC(=O)N[C@@H](CCCCN)C(=O)N[C@@H](CCCNC(=N)N)C(=O)NCC(=O)N[C@@H](CCCCN)C(=O)N[C@@H](CCC(N)=O)C(=O)NCC(=O)N[C@@H](CCC(N)=O)C(=O)N[C@@H](CCCCN)C(=O)NCC(=O)N1CCC[C@H]1C(=O)N1C[C@H](O)C[C@H]1C(=O)NCC(=O)N1CCC[C@H]1C(=O)N1C[C@H](O)C[C@H]1C(=O)NCC(=O)N1CCC[C@H]1C(=O)N1C[C@H](O)C[C@H]1C(=O)NCC(=O)N1CCC[C@H]1C(=O)N1C[C@H](O)C[C@H]1C(=O)NCC(N)=O [AchE-P231 (r), Ac-GPO-GPO-GRO-GKR-GKQ-GQK-(GPO)4-G-NH2] (Ac-GP[Hyp]GP[Hyp]GR[Hyp]GKRGKQGQKGP[Hyp]GP[Hyp]GP[Hyp]GP[Hyp]G-NH2)",23.9,−1.9
"CC(=O)NCC(=O)N1CCC[C@H]1C(=O)N1C[C@H](O)C[C@H]1C(=O)NCC(=O)N1CCC[C@H]1C(=O)N1C[C@H](O)C[C@H]1C(=O)NCC(=O)N1CCC[C@H]1C(=O)N1C[C@H](O)C[C@H]1C(=O)NCC(=O)N[C@@H](C)C(=O)N[C@@H](CCCCN)C(=O)NCC(=O)N[C@@H](CC(=O)O)C(=O)N[C@@H](C)C(=O)NCC(=O)N1CCC[C@H]1C(=O)N1C[C@H](O)C[C@H]1C(=O)NCC(=O)N1CCC[C@H]1C(=O)N[C@@H](C)C(=O)NCC(=O)N1CCC[C@H]1C(=O)N1C[C@H](O)C[C@H]1C(=O)NCC(=O)N1CCC[C@H]1C(=O)N1C[C@H](O)C[C@H]1C(=O)NCC(=O)N1CCC[C@H]1C(=O)N1C[C@H](O)C[C@H]1C(=O)NCC(=O)N[C@@H](Cc1ccc(O)cc1)C(N)=O [T1-655, Ac-(GPO)3-GAK-GDA-GPO-GPA-(GPO)3-GY-NH2] (Ac-GP[Hyp]GP[Hyp]GP[Hyp]GAKGDAGP[Hyp]GPAGP[Hyp]GP[Hyp]GP[Hyp]GY-NH2)",42.8,0.1
"CC(=O)NCC(=O)N1CCC[C@H]1C(=O)N[C@@H](C)C(=O)NCC(=O)N1CCC[C@H]1C(=O)N[C@@H](C)C(=O)NCC(=O)N1CCC[C@H]1C(=O)N[C@H](C(=O)NCC(=O)N1CCC[C@H]1C(=O)N[C@@H](C)C(=O)NCC(=O)N[C@@H](C)C(=O)N[C@@H](CCCNC(=N)N)C(=O)NCC(=O)N1CCC[C@H]1C(=O)N[C@@H](C)C(=O)NCC(=O)N1CCC[C@H]1C(=O)N1C[C@H](O)C[C@H]1C(=O)NCC(=O)N1CCC[C@H]1C(=O)N[C@@H](C)C(=O)NCC(=O)N1CCC[C@H]1C(=O)N1C[C@H](O)C[C@H]1C(=O)NCC(=O)N1CCC[C@H]1C(=O)N1C[C@H](O)C[C@H]1C(=O)NCC(=O)N[C@H](C(N)=O)C(C)C)C(C)C [T1-892 (O24A), Ac-(GPA)2-GPV-GPA-GAR-GPA-GPO-GPA-(GPO)2-GV-NH2] (Ac-GPAGPAGPVGPAGARGPAGP[Hyp]GPAGP[Hyp]GP[Hyp]GV-NH2)",23.2,1.4
"CC(=O)NCC(=O)N1CCC[C@H]1C(=O)N[C@@H](C)C(=O)NCC(=O)N1CCC[C@H]1C(=O)N[C@@H](C)C(=O)NCC(=O)N1CCC[C@H]1C(=O)N[C@H](C(=O)NCC(=O)N1CCC[C@H]1C(=O)N[C@@H](C)C(=O)NCC(=O)N[C@@H](C)C(=O)N[C@@H](CCCNC(=N)N)C(=O)NCC(=O)N1CCC[C@H]1C(=O)N[C@@H](C)C(=O)NCC(=O)N1CCC[C@H]1C(=O)N1C[C@H](O)C[C@H]1C(=O)NCC(=O)N1CCC[C@H]1C(=O)N1C[C@H](O)C[C@H]1C(=O)NCC(=O)N[C@@H](C)C(=O)N1C[C@H](O)C[C@H]1C(=O)NCC(=O)N1CCC[C@H]1C(=O)N1C[C@H](O)C[C@H]1C(=O)NCC(=O)N[C@H](C(N)=O)C(C)C)C(C)C [T1-892 (P26A), Ac-(GPA)2-GPV-GPA-GAR-GPA-(GPO)2-GAO-GPO-GV-NH2] (Ac-GPAGPAGPVGPAGARGPAGP[Hyp]GP[Hyp]GA[Hyp]GP[Hyp]GV-NH2)",24.1,1.5
"CC(C)[C@H](NC(=O)[C@@H]1CCCN1C(=O)CNC(=O)[C@H](C)NC(=O)[C@@H]1CCCN1C(=O)CNC(=O)[C@H](C)NC(=O)[C@@H]1CCCN1C(=O)CN)C(=O)NCC(=O)N1CCC[C@H]1C(=O)N[C@@H](C)C(=O)NCC(=O)N[C@@H](C)C(=O)N[C@@H](CCCNC(=N)N)C(=O)NCC(=O)N1CCC[C@H]1C(=O)N[C@@H](C)C(=O)NCC(=O)N1CCC[C@H]1C(=O)N1C[C@H](O)C[C@H]1C(=O)NCC(=O)N1CCC[C@H]1C(=O)N1C[C@H](O)C[C@H]1C(=O)NCC(=O)N1CCC[C@H]1C(=O)N1C[C@H](O)C[C@H]1C(=O)NCC(=O)N1CCC[C@H]1C(=O)N1C[C@H](O)C[C@H]1C(=O)NCC(=O)N[C@@H](Cc1ccc(O)cc1)C(=O)O [T1-892 unbl, GPA-GPA-GPV-GPA-GAR-GPA-(GPO)4-GY] (H-GPAGPAGPVGPAGARGPAGP[Hyp]GP[Hyp]GP[Hyp]GP[Hyp]GY-OH)",20.6,−3.2

# The remaining lines, values ahead:
Tm^obs [1] [°C],ΔTm [2] [°C],Compound
23.3,−7.4,"CC(=O)NCC(=O)N1CCC[C@H]1C(=O)N1C[C@H](O)C[C@H]1C(=O)NCC(=O)N[C@@H](CCCNC(=N)N)C(=O)N1C[C@H](O)C[C@H]1C(=O)NCC(=O)N[C@@H](CCCNC(=N)N)C(=O)N[C@@H](CCCNC(=N)N)C(=O)NCC(=O)N[C@@H](CCCNC(=N)N)C(=O)N1C[C@H](O)C[C@H]1C(=O)NCC(=O)N[C@@H](CC(C)C)C(=O)N[C@@H](CCCCN)C(=O)NCC(=O)N[C@@H](CCC(=O)O)C(=O)N[C@@H](CCC(N)=O)C(=O)NCC(=O)N1CCC[C@H]1C(=O)N1C[C@H](O)C[C@H]1C(=O)NCC(=O)N1CCC[C@H]1C(=O)N1C[C@H](O)C[C@H]1C(=O)NCC(=O)N1CCC[C@H]1C(=O)N1C[C@H](O)C[C@H]1C(=O)NCC(=O)N1CCC[C@H]1C(=O)N1C[C@H](O)C[C@H]1C(=O)NCC(=O)N[C@@H](Cc1ccc(O)cc1)C(N)=O [C1qA-15, Ac-GPO-GRO-GRR-GRO-GLK-GEQ-(GPO)4-GY-NH2] (Ac-GP[Hyp]GR[Hyp]GRRGR[Hyp]GLKGEQGP[Hyp]GP[Hyp]GP[Hyp]GP[Hyp]GY-NH2)"
28.4,−1.4,"CC[C@H](C)[C@H](NC(=O)CNC(=O)[C@@H]1C[C@@H](O)CN1C(=O)[C@@H]1CCCN1C(=O)CNC(C)=O)C(=O)N[C@@H](CCCNC(=N)N)C(=O)NCC(=O)N1CCC[C@H]1C(=O)N[C@@H](CCCCN)C(=O)NCC(=O)N[C@@H](CCC(N)=O)C(=O)N[C@@H](CCCCN)C(=O)NCC(=O)N[C@@H](CCC(=O)O)C(=O)N1C[C@H](O)C[C@H]1C(=O)NCC(=O)N[C@@H](CC(C)C)C(=O)N1C[C@H](O)C[C@H]1C(=O)NCC(=O)N1CCC[C@H]1C(=O)N1C[C@H](O)C[C@H]1C(=O)NCC(=O)N1CCC[C@H]1C(=O)N1C[C@H](O)C[C@H]1C(=O)NCC(=O)N1CCC[C@H]1C(=O)N1C[C@H](O)C[C@H]1C(=O)NCC(=O)N1CCC[C@H]1C(=O)N1C[C@H](O)C[C@H]1C(=O)NCC(=O)N[C@@H](Cc1ccc(O)cc1)C(N)=O [C1qC-67, Ac-GPO-GIR-GPK-GQK-GEO-GLO-(GPO)4-GY-NH2] (Ac-GP[Hyp]GIRGPKGQKGE[Hyp]GL[Hyp]GP[Hyp]GP[Hyp]GP[Hyp]GP[Hyp]GY-NH2)"
23.0,−2.2,"CC[C@H](C)[C@H](NC(=O)CNC(C)=O)C(=O)N[C@@H](CC(N)=O)C(=O)NCC(=O)N[C@@H](Cc1ccccc1)C(=O)N1C[C@H](O)C[C@H]1C(=O)NCC(=O)N[C@@H](CCCCN)C(=O)N[C@@H](CC(=O)O)C(=O)NCC(=O)N[C@@H](CCCNC(=N)N)C(=O)N[C@@H](CC(=O)O)C(=O)NCC(=O)N[C@H](C(=O)N[C@@H](CCCCN)C(=O)NCC(=O)N[C@@H](CCC(=O)O)C(=O)N[C@@H](CCCCN)C(=O)NCC(=O)N[C@@H](CCC(=O)O)C(=O)N1C[C@H](O)C[C@H]1C(=O)NCC(=O)N1CCC[C@H]1C(=O)N1C[C@H](O)C[C@H]1C(=O)NCC(=O)N1CCC[C@H]1C(=O)N1C[C@H](O)C[C@H]1C(=O)NCC(=O)N1CCC[C@H]1C(=O)N1C[C@H](O)C[C@H]1C(=O)NCC(=O)N1CCC[C@H]1C(=O)N1C[C@H](O)C[C@H]1C(=O)NCC(=O)NCC(N)=O)[C@@H](C)O [MBL 42-61, Ac-GIN-GFO-GKD-GRD-GTK-GEK-GEO-(GPO)4-GG-NH2] (Ac-GINGF[Hyp]GKDGRDGTKGEKGE[Hyp]GP[Hyp]GP[Hyp]GP[Hyp]GP[Hyp]GG-NH2)"
